Assay results taken from patent publication US11986532B2 (Arvinas Operations, Inc., priority 2021, dated 2024).
Read-outs that look alike come from different tables or passages of the source.

Target: T1, BCL6 (Homo sapiens, UniProt P41182)
T1 construct: endogenous in cells; host or cells: T47D breast cancer epithelial cells
Assay: Immunofluorescence protocol for high content imaging of BCL6 (degradation) in T47D cells, 3 days compound treatment
Format: cell-based
Conditions: for DC50: read-out: Mean DC50 (nM)* category; for Dmax: read-out: Mean Dmax (%)** category
Method in brief: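 Cells are seeded to reach ~70-90% confluence at endpoint, then dosed next day with compound at a final top concentration of 0.1 or 1 μM (11 points, 3-fold). After 3 days, BCL6 is detected by immunofluorescence and quantified by high-content imaging.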

[1] = T47D cells, 3 days compound treatment

Structure (SMILES) | DC50 [1] | Dmax [1] | Dmax (T47D) | DC50
CNC(=O)COc1cc2cc(Nc3nc(N4CCC(O[C@H]5C[C@H](N6CCC(c7ccc8c(c7F)CN(C7CCC(=O)NC7=O)C8=O)CC6)C5)CC4)ncc3Cl)ccc2n(C(C)C)c1=O (some centres unmarked) [Compound 81, 2-({6-[(5-chloro-2-{4-[(1r,3r)-3-{4-[2-(2,6-dioxopiperidin-3-yl)-4-fluoro-1-oxo-2,3-dihydro-1H-isoindol-5-yl]piperidin-1-yl}cyclobutoxy]piperidin-1-yl}pyrimidin-4-yl)amino]-2-oxo-1-(propan-2-yl)-1,2-dihydroquinolin-3-yl}oxy)-N-methylacetamide] | < 10 nM | 50 to 70% | – | –
CNC(=O)COc1cc2cc(Nc3nc(N4CCC5(CC4)CN(C(C)(C)C4CCN(c6cccc7c6CN(C6CCC(=O)NC6=O)C7=O)CC4)C5)ncc3Cl)ccc2n(C(C)C)c1=O (centres unmarked) [Compound 36, 2-{[6-({5-chloro-2-[2-(2-{1-[2-(2,6-dioxopiperidin-3-yl)-1-oxo-2,3-dihydro-1H-isoindol-4-yl]piperidin-4-yl}propan-2-yl)-2,7-diazaspiro [3.5]nonan-7-yl]pyrimidin-4-yl}amino)-2-oxo-1-(propan-2-yl)-1,2-dihydroquinolin-3-yl]oxy}-N-methylacetamide] | < 10 nM | ≥ 70% | – | –
CNC(=O)COc1cc2c(F)c(Nc3nc(N4CCC(F)(CN5CCC6(CC5)CN(c5ccc7c(c5F)CN(C5CCC(=O)NC5=O)C7=O)C6)CC4)ncc3Cl)ccc2n(C(C)C)c1=O (centres unmarked) [Compound 390, 2-{[6-({5-chloro-2-[4-({2-[2-(2,6-dioxopiperidin-3-yl)-4-fluoro-1-oxo-2,3-dihydro-1H-isoindol-5-yl]-2,7-diazaspiro[3.5]nonan-7-yl}methyl)-4-fluoropiperidin-1-yl]pyrimidin-4-yl}amino)-5-fluoro-2-oxo-1-(propan-2-yl)-1,2-dihydroquinolin-3-yl]oxy}-N-methylacetamide] | – | – | ≥ 70% | < 10 nM
CNC(=O)COc1cc2c(F)c(Nc3nc(N4CCC(F)(CN5CCC6(CC5)CN(c5ccc7c(c5)CN(C5CCC(=O)NC5=O)C7=O)C6)CC4)ncc3Cl)ccc2n(C(C)C)c1=O (centres unmarked) [Compound 389, 2-{[6-({5-chloro-2-[4-({2-[2-(2,6-dioxopiperidin-3-yl)-1-oxo-2,3-dihydro-1H-isoindol-5-yl]-2,7-diazaspiro[3.5]nonan-7-yl}methyl)-4-fluoropiperidin-1-yl]pyrimidin-4-yl}amino)-5-fluoro-2-oxo-1-(propan-2-yl)-1,2-dihydroquinolin-3-yl]oxy}-N-methylacetamide] | – | – | ≥ 70% | < 10 nM
CNC(=O)COc1cc2cc(Nc3nc(N4CCN(CC5CC6(CCN(c7cc8c(cc7F)C(=O)N(C7CCC(=O)NC7=O)C8)CC6)C5)CC4)ncc3Cl)ccc2n(C(C)C)c1=O (centres unmarked) [Compound 318, 2-{[6-({5-chloro-2-[4-({7-[2-(2,6-dioxopiperidin-3-yl)-6-fluoro-1-oxo-2,3-dihydro-1H-isoindol-5-yl]-7-azaspiro[3.5]nonan-2-yl}methyl)piperazin-1-yl]pyrimidin-4-yl}amino)-2-oxo-1-(propan-2-yl)-1,2-dihydroquinolin-3-yl]oxy}-N-methylacetamide] | – | – | 50 to 70% | < 10 nM
CNC(=O)COc1cc2cc(Nc3nc(N4CCC(O[C@H]5C[C@H](N6CCN(c7ccc8c(c7)C(=O)N(C7CCC(=O)NC7=O)C8=O)[C@H](C)C6)C5)CC4)ncc3Cl)ccc2n(C(C)C)c1=O (stereo partly drawn) [Compound 387, 2-({6-[(5-chloro-2-{4-[(1r,3r)-3-[(3R)-4-[2-(2,6-dioxopiperidin-3-yl)-1,3-dioxo-2,3-dihydro-1H-isoindol-5-yl]-3-methylpiperazin-1-yl]cyclobutoxy]piperidin-1-yl}pyrimidin-4-yl)amino]-2-oxo-1-(propan-2-yl)-1,2-dihydroquinolin-3-yl}oxy)-N-methylacetamide] | – | – | 50 to 70% | < 10 nM
CNC(=O)COc1cc2c(F)c(Nc3cc(N4CCC(F)(CN5CCC6(CC5)CN(c5ccc7c(c5)CN(C5CCC(=O)NC5=O)C7=O)C6)CC4)ncc3Cl)ccc2n(C(C)C)c1=O (centres unmarked) [Compound 262, 2-{[6-({5-chloro-2-[4-({2-[2-(2,6-dioxopiperidin-3-yl)-1-oxo-2,3-dihydro-1H-isoindol-5-yl]-2,7-diazaspiro[3.5]nonan-7-yl}methyl)-4-fluoropiperidin-1-yl]pyridin-4-yl}amino)-5-fluoro-2-oxo-1-(propan-2-yl)-1,2-dihydroquinolin-3-yl]oxy}-N-methylacetamide] | – | – | 50 to 70% | < 10 nM
CNC(=O)COc1cc2cc(Nc3nc(N4CCC(O[C@H]5C[C@H](N6CCC7(CCCN(c8ccc9c(c8)C(=O)N(C8CCC(=O)NC8=O)C9=O)C7)C6)C5)CC4)ncc3Cl)ccc2n(C(C)C)c1=O (some centres unmarked) [Compound 359, 2-({6-[(5-chloro-2-{4-[(1r,3r)-3-{7-[2-(2,6-dioxopiperidin-3-yl)-1,3-dioxo-2,3-dihydro-1H-isoindol-5-yl]-2,7-diazaspiro [4.5]decan-2-yl}cyclobutoxy]piperidin-1-yl}pyrimidin-4-yl)amino]-2-oxo-1-(propan-2-yl)-1,2-dihydroquinolin-3-yl}oxy)-N-methylacetamide] | – | – | 50 to 70% | 10 to 50 nM
CNC(=O)COc1cc2cc(Nc3nc(N4CCN(C(C)(C)C5CCN(c6ccc7c(c6F)CN(C6CCC(=O)NC6=O)C7=O)CC5)CC4)ncc3Cl)ccc2n(C(C)C)c1=O (centres unmarked) [Compound 89, 2-{[6-({5-chloro-2-[4-(2-{1-[2-(2,6-dioxopiperidin-3-yl)-4-fluoro-1-oxo-2,3-dihydro-1H-isoindol-5-yl]piperidin-4-yl}propan-2-yl)piperazin-1-yl]pyrimidin-4-yl}amino)-2-oxo-1-(propan-2-yl)-1,2-dihydroquinolin-3-yl]oxy}-N-methylacetamide] | < 10 nM | 50 to 70% | – | –
CNC(=O)COc1cc2cc(Nc3nc(N4CCC(O[C@H]5C[C@H](N6CCC(c7cc8c(c(OC)c7)C(=O)N(C7CCC(=O)NC7=O)C8)CC6)C5)CC4)ncc3Cl)ccc2n(C(C)C)c1=O (some centres unmarked) [Compound 103, 2-({6-[(5-chloro-2-{4-[(1r,3r)-3-{4-[2-(2,6-dioxopiperidin-3-yl)-7-methoxy-1-oxo-2,3-dihydro-1H-isoindol-5-yl]piperidin-1-yl}cyclobutoxy]piperidin-1-yl}pyrimidin-4-yl)amino]-2-oxo-1-(propan-2-yl)-1,2-dihydroquinolin-3-yl}oxy)-N-methylacetamide] | < 10 nM | 50 to 70% | – | –
CNC(=O)COc1cc2cc(Nc3nc(N4CCC(O[C@H]5C[C@H](N6CCC7(CCN(c8ccc9c(c8)C(=O)N(C8CCC(=O)NC8=O)C9=O)C7)CC6)C5)CC4)ncc3Cl)ccc2n(C(C)C)c1=O (some centres unmarked) [Compound 360, 2-({6-[(5-chloro-2-{4-[(1r,3r)-3-{2-[2-(2,6-dioxopiperidin-3-yl)-1,3-dioxo-2,3-dihydro-1H-isoindol-5-yl]-2,8-diazaspiro[4.5]decan-8-yl}cyclobutoxy]piperidin-1-yl}pyrimidin-4-yl)amino]-2-oxo-1-(propan-2-yl)-1,2-dihydroquinolin-3-yl}oxy)-N-methylacetamide] | – | – | 50 to 70% | < 10 nM
CNC(=O)COc1cc2cc(Nc3nc(N4CCC(O[C@H]5C[C@H](N6CCCC7(CCN(c8ccc9c(c8F)CN(C8CCC(=O)NC8=O)C9=O)C7)C6)C5)CC4)ncc3Cl)ccc2n(C(C)C)c1=O (some centres unmarked) [Compound 401, 2-({6-[(5-chloro-2-{4-[(1r,3r)-3-{2-[2-(2,6-dioxopiperidin-3-yl)-4-fluoro-1-oxo-2,3-dihydro-1H-isoindol-5-yl]-2,7-diazaspiro[4.5]decan-7-yl}cyclobutoxy]piperidin-1-yl}pyrimidin-4-yl)amino]-2-oxo-1-(propan-2-yl)-1,2-dihydroquinolin-3-yl}oxy)-N-methylacetamide] | – | – | ≥ 70% | < 10 nM

Further lines, with some results ahead:

DC50 [1] | Dmax [1] | Structure (SMILES) | Dmax (T47D) | DC50
≥ 100 nM | – | CNC(=O)COc1cc2cc(Nc3nc(N4CCOC5(CN(CC6CCN(c7cccc8c7C(=O)N(C7CCC(=O)NC7=O)C8=O)CC6)C5)C4)ncc3Cl)ccc2n(C(C)C)c1=O (centres unmarked) [Compound 143, 2-{[6-({5-chloro-2-[2-({1-[2-(2,6-dioxopiperidin-3-yl)-1,3-dioxo-2,3-dihydro-1H-isoindol-4-yl]piperidin-4-yl}methyl)-5-oxa-2,8-diazaspiro[3.5]nonan-8-yl]pyrimidin-4-yl}amino)-2-oxo-1-(propan-2-yl)-1,2-dihydroquinolin-3-yl]oxy}-N-methylacetamide] | – | –
< 10 nM | 50 to 70% | CNC(=O)COc1cc2cc(Nc3nc(N4CCC5(CCN(CC6(F)CCN(c7cc(F)cc8c7CN(C7CCC(=O)NC7=O)C8=O)CC6)CC5)CC4)ncc3Cl)ccc2n(C(C)C)c1=O (centres unmarked) [Compound 109, 2-{[6-({5-chloro-2-[9-({1-[2-(2,6-dioxopiperidin-3-yl)-6-fluoro-1-oxo-2,3-dihydro-1H-isoindol-4-yl]-4-fluoropiperidin-4-yl}methyl)-3,9-diazaspiro [5.5]undecan-3-yl]pyrimidin-4-yl}amino)-2-oxo-1-(propan-2-yl)-1,2-dihydroquinolin-3-yl]oxy}-N-methylacetamide] | – | –
< 10 nM | 50 to 70% | CNC(=O)COc1cc2cc(Nc3nc(N4CCC(CN5CCC6(CC5)CN(c5ccc7c(c5)C(=O)N(C5CCC(=O)NC5=O)C7=O)C6(C)C)CC4)ncc3Cl)ccc2n(C(C)C)c1=O (centres unmarked) [Compound 133, 2-{[6-({5-chloro-2-[4-({2-[2-(2,6-dioxopiperidin-3-yl)-1,3-dioxo-2,3-dihydro-1H-isoindol-5-yl]-1,1-dimethyl-2,7-diazaspiro[3.5]nonan-7-yl}methyl)piperidin-1-yl]pyrimidin-4-yl}amino)-2-oxo-1-(propan-2-yl)-1,2-dihydroquinolin-3-yl]oxy}-N-methylacetamide] | – | –
